Measured values published in ChEMBL document CHEMBL5665440, “ASAP - In vitro liver microsomal stability” (2024).
“And” between values parts separate entries of the source, which are not always exact repeats. Equal entries are not always repeated.

What was measured:
[1] = (§1) Human liver microsomal stability of compound in microsomal protein, PBS buffer pH 7.4, NADPH, glucose-6-phosphate and glucose-6-phosphate dehydrogenase media. Aliquotes were taken at 5 time points and after stopping the reaction, supernatants were analyzed using HPLC coupled with a tandem mass spectrometer. The elimination constant, half-life, and intrinsic clearance are determined as results using linear regression analysis.; type: ADME, microsomes, Microsome; conditions: for half-life / microsomal CLint: liver microsomes; for Remaining / Remaining (without cofactor) / CLint / T1/2: microsomes
[2] = as §1, with “Mouse” for “Human”; type: ADME, microsomes, Microsome; conditions: for half-life / microsomal CLint: liver microsomes; for Remaining / Remaining (without cofactor) / CLint / T1/2: microsomes
Throughout, for Remaining (without cofactor): time not given here.
Throughout, for Remaining: time not given here.

SMILES | half-life [1] [h] | microsomal CLint [1] [µL/min/mg] | Remaining [1] | Remaining (without cofactor) [1] | half-life [2] [h] | microsomal CLint [2] [µL/min/mg] | Remaining [2] | Remaining (without cofactor) [2] | CLint [1] [µL/min/mg] | T1/2 [1] | CLint [2] [µL/min/mg] | T1/2 [2] [min]
O=C(Nc1ccc2c(c1)CNC2)c1cc(Br)cc2[nH]c(-c3ccccc3)nc12 | 2.18 | 12.8 | 80.427% | 94.891% | 0.636 | 43.8 | 49.173% | 86.086% |  |  |  | 
O=C(NCC(F)F)[C@H](Nc1cnc2c(c1)CNC2)c1cc(Cl)cc(C2CC2)c1 | > 2.89 | < 10 | 91.952% | 110.51% | > 2.89 | < 10 | 87.443% | 105.088% |  |  |  | 
O=C(Nc1ccc2c(c1)CNC2)c1cc(F)cc2[nH]ncc12 | > 2.89 | < 10 | 86.703% | 98.509% | 0.154 | 180 | 5.066% | 103.462% |  |  |  | 
N#Cc1cc2c(cc1NC(=O)c1cc(F)cc3[nH]ncc13)CNC2 | > 2.89 | < 10 | 85.714% and 76.558% | 101.075% and 93.161% | 0.0957 | 291 | 0.854% and 0.916% | 97.455% and 90.578% | 16.74 | 1.6629 h | 288.453 | 5.79
O=C(Nc1cc2c(cc1C1CC1)CNC2)c1cc(F)cc2[nH]ncc12 | > 2.89 | < 10 | 104.365% | 104.155% | 0.321 | 86.8 | 23.262% | 95.024% |  |  |  | 
COc1cc(Cc2c(-c3ccc(F)cc3)noc2C)nc(N2CCNCC2)n1 | 1.8 | 15 | 82% | 110% | 0.695 | 33 | 52% | 101% |  |  |  | 
O=C(Nc1ccc2c(c1)CNC2)c1ccc2[nH]cc(C3CCNCC3)c2c1 | > 2.89 | < 10 | 86.755% | 110.939% | > 2.89 | < 10 | 86.057% | 94.216% |  |  |  | 
CO[C@H]1C[C@H](n2ncc3c(C(=O)Nc4ccc5c(c4)CNC5)cc(Cl)cc32)C1 | > 2.89 | < 10 | 104.617% | 107.995% | > 2.89 | < 10 | 91.321% | 100.159% |  |  |  | 
O=C(NCC(F)F)[C@H](Nc1cc2c(cc1Br)CNC2)c1cc(Cl)cc(C2CC2)c1 | 1.08 | 25.9 | 67.209% | 94.723% | 1.21 | 22.9 | 69.524% | 97.036% |  |  |  | 
COCCNC(=O)[C@H](Nc1ccc2c(c1)CNC2)c1cc(Cl)cc(C2CC2)c1 | 1.42 | 19.7 | 68.563% | 103.817% | 2.38 | 11.7 | 84.686% | 107.462% |  |  |  | 
O=C(Nc1ccc2c(c1)CNC2)c1cc(Cl)cc2c1cnn2C1CCC1 | > 2.89 | < 10 | 93.064% | 105.277% | 2.08 | 13.4 | 78.077% | 96.092% |  |  |  | 
O=C(Nc1ccc2c(c1)CNC2)c1cc(F)cc2c1CCC2 | > 2.89 | < 10 | 95.811% | 102.779% | 0.745 | 37.4 | 53.571% | 103.66% |  |  |  | 
COc1cc(-c2cc(NC(=O)c3cc(F)cc4[nH]ncc34)cc3c2CNC3)ccn1 | > 2.89 | < 10 | 90.289% | 101.002% | 0.107 | 260 | 1.475% | 106.757% |  |  |  | 
CC(C)n1cc2c(C(=O)Nc3ccc4c(c3)CNC4)cc(Cl)cc2n1 | > 2.89 | < 10 | 96.618% | 96.957% | > 2.89 | < 10 | 89.02% | 93.513% |  |  |  | 
O=C(Nc1ccc2c(c1)CNC2)c1cc(F)cc(-c2cn[nH]c2)c1 | 0.79 | 35.2 | 55.679% and 55.059% | 98.537% and 92.131% | 0.051 | 545 | 0.198% and 0.909% | 96.471% and 97.807% | 36.323 | 0.76638 h | 553.458 | 3.018
O=C1Cc2cc(C(=O)Nc3ccc4c(c3)CNC4)ccc2N1 |  |  |  |  | > 2.89 | < 10 | 102.985% | 100.305% |  |  |  | 
O=C(Nc1cc(Br)c2c(c1)CNC2)c1cc(F)cc2[nH]ncc12 | 2.05 | 13.6 | 77.163% | 100.794% | 0.192 | 145 | 10.289% | 104.117% |  |  |  | 
Cc1c(C(=O)Nc2cc(-c3cccnc3)ccn2)cc(C2CC2)n1C |  |  |  |  | 0.0717 | 388 | 0.854% | 95.554% |  |  |  | 
C=CC[C@H]1NCc2cc(NC(=O)c3cc(F)cc4[nH]ncc34)ccc21 | > 2.89 | < 10 | 97.296% | 93.037% |  |  |  |  |  |  |  | 

SMILES | half-life [1] [h] | microsomal CLint [1] [µL/min/mg] | Remaining [1] | Remaining (without cofactor) [1] | half-life [2] [h] | microsomal CLint [2] [µL/min/mg] | Remaining [2] | Remaining (without cofactor) [2] | CLint [1] [µL/min/mg] | T1/2 [1] | CLint [2] [µL/min/mg] | T1/2 [2] [min]
CC(C)NC(=O)[C@H](Nc1ccc2c(c1)CNC2)c1cc(Cl)cc2[nH]ncc12 | > 2.89 | < 10 | 91.546% | 107.23% |  |  |  |  |  |  |  | 
Cc1cc(-c2ccc([C@@H](NC(=O)OCc3ccccc3)C(=O)Nc3cccc(CN)c3)cc2)cs1 | 0.943 | 29.5 | 62.909% | 101.077% |  |  |  |  |  |  |  | 
O=C(Nc1cc(Cl)cc(C(=O)Nc2cccc(-c3nnn[nH]3)c2)c1)OCc1ccccc1 | > 2.89 | < 10 | 88.987% | 100.499% |  |  |  |  |  |  |  | 
CNC(=O)[C@H](Nc1cc(CN)cc(-c2nn[nH]n2)c1)c1cc(Cl)cc(C2CC2)c1 | > 2.89 | < 10 | 95.463% | 101.856% |  |  |  |  |  |  |  | 
NCc1cccc(NC(=O)CN(C(=O)OCc2ccccc2)c2ccc(OCc3ccccc3)cc2)c1 | 2.6 | 11 | 83% | 101% |  |  |  |  |  |  |  | 
O=C(O)COc1cccc(NC(=O)c2cc(Cl)cc(NC(=O)OCc3ccccc3)c2)c1 | > 2.89 | < 10 | 98.934% | 109.497% |  |  |  |  |  |  |  | 
O=C(O)c1cc(Cl)ccc1S(=O)(=O)NC1CCN(c2nc(C3CC3)cc(C(F)(F)F)n2)CC1 | 1.06 | 26.3 | 62.456% | 103.505% |  |  |  |  |  |  |  | 
O=C(Nc1cc(Cl)cc(C(=O)Nc2n[nH]c3c2CNC3)c1)OCc1ccccc1 | > 2.89 | < 10 | 100.832% | 95.38% |  |  |  |  |  |  |  | 
NCc1cc(Cl)cc(C(=O)Nc2ccc3c(c2)CNC3)c1 |  |  | 0% | 109.308% |  |  |  |  |  | Half-life could not be determined |  | 
N#C[C@H](Nc1ccc2c(c1)CNC2)c1cc(Cl)cc2[nH]ncc12 | 2.71 | 10.3 | 84.178% | 84.336% |  |  |  |  |  |  |  | 
O=C(Nc1cc(Cl)cc([C@H]2CN(Cc3ccccc3)C[C@@H]2c2cccc(-c3nn[nH]n3)c2)c1)OCc1ccccc1 | 0.601 | 46.3 | 46.707% | 96.205% |  |  |  |  |  |  |  | 
CCc1cc(C(=O)Nc2cccc(CN)c2)sc1-c1ccc(Cl)cc1 | > 2.89 | < 10 | 114.72% | 98.952% |  |  |  |  |  |  |  | 
NCc1cccc(NC(=O)c2cc(Cl)cc(NC(=O)OCc3ccccc3)c2)c1 | > 2.89 | < 10 | 93.647% | 102.839% |  |  |  |  |  |  |  | 
Cc1c(C(=O)Nc2cc([C@H]3CCOC3)ccn2)cc(C2CC2)n1C | 0.482 | 57.7 | 39.342% | 94.838% |  |  |  |  |  |  |  | 
O=C(Nc1ccc2c(c1)CNC2)c1cc(Cl)cc2c1CCC2 | > 2.89 | < 10 | 85.255% | 101.935% |  |  |  |  |  |  |  | 
Cc1cc(OCc2ccccc2)ccc1NS(=O)(=O)c1ccc(Cl)cc1C(=O)O | 1.25 | 22.3 | 70.445% | 101.396% |  |  |  |  |  |  |  | 
Cn1ncc2c(C(=O)Nc3ccc4c(c3)CNC4)cc(Br)cc21 | > 2.89 | < 10 | 83.745% | 108.267% |  |  |  |  |  |  |  | 
NCc1cccc(NC(=O)c2cc(OCc3ccccc3)ccc2CNC(=O)OCc2ccccc2)c1 | 1.31 | 21 | 69% | 103% |  |  |  |  |  |  |  | 
